Data reported in patent US20160045505A1, “COMPOUNDS AND COMPOSITIONS FOR THE TREATMENT OF PARASITIC DISEASES” (NOVARTIS AG, priority 2013, published 2016).
pEC50: −log10 of the molar value. Like-named read-outs stand apart in the source and are kept apart here.

Key:
[1] = test system: Leishmania donovani axenic amastigote parasites; assay: Leishmania donovani axenic amastigote proliferation assay (Cell TiterGlo luminescence, 2 day incubation); assay type: cell-based; conditions: Leishmania donovani, read-out: L. donovani amastigotes EC50
[2] = test system: L. donovani HU3 strain in mouse peritoneal macrophages; assay: Assay for proliferation of Leishmania parasites in infected mouse peritoneal macrophages (SybrGreen staining, high-content imaging, 5 days); assay type: cell-based, Leishmania donovani; conditions: Leishmania donovani, Peritoneal macrophage, L. donovani in mouse peritoneal macrophages, read-out: L. donovani Macrophage EC50
[3] = test system: Trypanosoma brucei Lister 427 strain, bloodstream form; assay: Assay for proliferation of kinetoplastid parasite Trypanosoma brucei (Cell Titer Glo, 48 hours); assay type: cell-based; conditions: Trypanosoma brucei, T. brucei Lister 427 bloodstream form, read-out: T. brucei EC50
Text: Assay for Proliferation of Kinetoplastid Parasite Trypanosoma brucei.
The proliferation is quantified by the addition of Cell Titer Glo (Promega®) a luminescent cell viability assay that measures the number of viable cells in culture based on the quantification of cellular ATP amount, which is an indicator of metabolically active cells.
The following assay illustrates the invention without in any way limiting the scope of the invention. This parasite proliferation assay measures the increase in parasite growth using an assay that measures ATP activity, Cell Titer Glo®.
Trypanosoma brucei Lister 427 strain is grown in HMI-9 Trypanosome media for T. brucei bloodstream form. 30 μl of HMI-9 media is dispensed into 384 well assay plates. 200 nl of compounds of the invention (in DMSO), including anti-trypanosome controls (Pentamidine and suramin), are then transferred into the assay plates, as well as DMSO alone to serve as a negative control for inhibition. Then 25 μl of a suspension of T. brucei culture in HMI-9 media is dispensed into the assay plates. The final concentration of parasites in culture corresponds to 1.7% of 0.5 uM ATP activity with Cell Titer Glo® in HMI-9 media. The plates are placed in a 37° C. incubator for 48 hours in an atmospheric environment containing 5% CO2. 40 μl of Cell Titer Glo® is dispensed into the plates. The plates are then read for luminescence. The percentage inhibition of 50%, EC50, is calculated for each compound.

[4] = test system: Trypanosoma cruzi amastigotes (Tulahuen strain expressing Lac-Z) cultured in 3T3 fibroblast cells; assay: microbe, parasite or virus in culture; assay type: cell-based; conditions: Trypanosoma cruzi, TULAHUEN, Fibroblast, T. cruzi amastigotes in 3T3 fibroblast cells, read-out: T cruzi EC50
[5] = axenic amastigotes, inhibition of proliferation

Row | Structure (SMILES) | pEC50 [1, 5] | pEC50 ([2]; inhibition of proliferation) | pEC50 ([3]; inhibition of proliferation) | pEC50 ([4]; inhibition of proliferation) | pEC50 ([1]; L. donovani axenic amastigotes) | pEC50 [2] | pEC50 [3] | pEC50 [4]
1 | CC(C)OC(=O)Nc1cnc2nc(-c3cc(NC(=O)N(C)C)ccc3Cl)cn2c1 [Compound 246] | 6.25 | 5.92 | 7.07 | 6.21 |  |  |  | 
2 | Cc1nc(C)c(C(=O)Nc2ccc(F)c(-c3cn4cc(-c5ccc(F)cn5)cnc4n3)c2)o1 [Compound 431] |  |  |  |  | 7.10 | 6.07 | 6.83 | 7.34
3 | COc1cccnc1Nc1ccc(F)c(-c2cn3cc(NC(=O)OC(C)C)cnc3n2)c1 [Compound 498] |  |  |  |  | 6.07 | 4.55 | 6.32 | 5.87
4 | CC(C)c1cnc2nc(-c3cc(NC(=O)N4CC(F)(F)C4)ccc3F)cn2c1 [Compound 416] |  |  |  |  | 7.52 | 7.03 | 7.39 | 7.33
5 | COCCN1CCC(c2cnc3nc(-c4cc(NC(=O)c5oc(C)nc5C)ccc4F)cn3c2)CC1 [Compound 540] |  |  |  |  | < 4.60 |  | 6.06 | 5.88
6 | Cc1nc(C)c(C(=O)Nc2ccc(F)c(-c3cn4cc(C5CCN(CCO)CC5)cnc4n3)c2)o1 [Compound 541] |  |  |  |  | < 4.60 |  | 5.00 | < 4.70
7 | CNc1ccc(-c2cnc3nc(-c4cc(NC(=O)N5CCCC5)ccc4Cl)cn3c2)cc1 [Compound 26, N-(4-chloro-3-(6-(4-(methylamino)phenyl)imidazo[1,2-a]pyrimidin-2-yl)phenyl)pyrrolidine-1-carboxamide] | 7.24 | 6.98 | 7.63 |  |  |  |  | 
8 | CCOC(=O)Nc1ccc(Cl)c(-c2cn3cc(-c4ccc(NC)cc4)cnc3n2)c1 [Compound 37] | 6.21 | 5.52 | 6.71 |  |  |  |  | 
9 | COCCOC(=O)Nc1ccc(Cl)c(-c2cn3cc(-c4ccccc4)cnc3n2)c1 [Compound 35] | 6.14 | 6.06 | 5.95 |  |  |  |  | 
10 | CCOC(=O)Nc1cccc(-c2cn3cc(NC(=O)OC(C)C)cnc3n2)c1 [Compound 10] | 5.53 | 5.63 | 6.64 |  |  |  |  | 
11 | CN1CCN(C(=O)Nc2ccc(F)c(-c3cn4cc(Br)cnc4n3)c2)CC1 [Compound 516] |  |  |  |  | < 4.60 | 4.68 | < 4.30 | 
12 | O=C(Nc1ccc(F)c(-c2cn3cc(NC(=O)C(F)(F)F)cnc3n2)c1)N1CCCC1 [Compound 566, N-(4-fluoro-3-(6-(2,2,2-trifluoroacetamido)imidazo[1,2-a]pyrimidin-2-yl)phenyl)pyrrolidine-1-carboxamide] |  |  |  |  | 5.94 | 4.92 | 6.67 | 
13 | CCN(C)C(=O)Nc1ccc(F)c(-c2cn3cc(NC(=O)OC(C)C)cnc3n2)c1 [Compound 9] | 5.61 | 5.88 | 6.72 |  |  |  |  | 
14 | O=C(Nc1cnc2nc(-c3cc(NC(=O)N4CCCC4)ccc3F)cn2c1)OCc1ccccc1 [Compound 512, benzyl (2-(2-fluoro-5-(pyrrolidine-1-carboxamido)phenyl)imidazo[1,2-a]pyrimidin-6-yl)carbamate] |  |  |  |  | 6.68 | 5.52 | 7.12 | 
15 | CS(=O)(=O)Nc1ccc(F)c(-c2cn3cc(Br)cnc3n2)c1 [Compound 316, N-(3-(6-bromoimidazo[1,2-a]pyrimidin-2-yl)-4-Fluorophenyl)methanesulfonamide] | < 4.60 | < 4.30 | < 4.30 |  |  |  |  | 
16 | CC(C)(C)OC(=O)Nc1cnc2nc(-c3cc(NC=O)ccc3F)cn2c1 [Compound 532, tert-butyl (2-(2-fluoro-5-formamidophenyl)imidazo[1,2-a]pyrimidin-6-yl)carbamate] |  |  |  |  | 4.86 | < 4.30 | 4.75 | 
17 | CC(C)OC(=O)Nc1cccc(-c2cn3cc(NC(=O)OC(C)C)cnc3n2)c1 [Compound 21] | 5.71 | 5.98 | 6.73 |  |  |  |  | 

Row | Structure (SMILES) | pEC50 [1, 5] | pEC50 ([2]; inhibition of proliferation) | pEC50 ([3]; inhibition of proliferation) | pEC50 ([4]; inhibition of proliferation) | pEC50 ([1]; L. donovani axenic amastigotes) | pEC50 [2] | pEC50 [3] | pEC50 [4]
18 | Cc1nc(C)c(C(=O)Nc2ccc(F)c(-c3cn4cc(-c5ccc(CCO)cn5)cnc4n3)c2)o1 [Compound 350] | 7.80 | 6.89 | 7.28 |  |  |  |  | 
19 | CNc1ccc(-c2cnc3nc(-c4cc(NC(=O)c5ccc(C)o5)ccc4Cl)cn3c2)cc1 [Compound 33, N-(4-chloro-3-(6-(4-(methylamino)phenyl)imidazo[1,2-a]pyrimidin-2-yl)phenyl)-5-methylfuran-2-carboxamide] | 6.43 | 6.18 | 6.73 |  |  |  |  | 
20 | COCCOC(=O)Nc1ccc(Cl)c(-c2cn3cc(-c4ccsc4)cnc3n2)c1 [Compound 34] | 6.59 | 6.12 | 6.31 |  |  |  |  | 
21 | Cc1nc(C)c(C(=O)Nc2ccc(F)c(-c3cn4cc(C5CCN(C(=O)CO)CC5)cnc4n3)c2)o1 [Compound 542, N-(4-fluoro-3-(6-(1-(2-hydroxyacetyl)piperidin-4-yl)imidazo[1,2-a]pyrimidin-2-yl)phenyl)-2,4-dimethyloxazole-5-carboxamide] |  |  |  |  | 6.35 |  | 6.33 | 5.09
22 | CN(C(=O)N1CCCC1)c1ccc(F)c(-c2cn3cc(N)cnc3n2)c1 [Compound 558] |  |  |  |  | < 4.60 | < 4.30 | 4.76 | 
23 | CC(C)OC(=O)Nc1cnc2nc(-c3cc(NC(=O)N4CC(C#N)C4)ccc3F)cn2c1 [Compound 290] | 5.50 | < 4.34 | 4.90 |  |  |  |  | 
24 | Cc1nc(C)c(C(=O)Nc2ccc(F)c(-c3cn4cc(CC(F)(F)F)cnc4n3)c2)o1 [Compound 575, N-(4-fluoro-3-(6-(2,2,2-trifluoroethyl)imidazo[1,2-a]pyrimidin-2-yl)phenyl)-2,4-dimethyloxazole-5-carboxamide] |  |  |  |  | 7.11 |  | 7.66 | 7.28
25 | CC(C)OC(=O)Nc1cnc2nc(-c3cc(NC(=O)N4CCC(F)(F)C4)ccc3Cl)cn2c1 [Compound 4, isopropyl (2-(2-chloro-5-(3,3-difluoropyrrolidine-1-carboxamido)phenyl)imidazo[1,2-a]pyrimidin-6-yl)carbamate] | 5.87 | 5.65 | 5.63 |  |  |  |  | 
26 | Cc1nc(C)c(C(=O)Nc2ccc(F)c(-c3cn4cc(-c5sc(C)nc5C)cnc4n3)c2)o1 [Compound 365] | 6.99 | 6.70 | 7.23 |  |  |  |  | 
27 | CC(C)OC(=O)Nc1cnc2nc(-c3cc(NC(=O)c4cncn4C)ccc3F)cn2c1 [Compound 96] | < 4.80 | 4.37 | 5.83 |  |  |  |  | 
28 | CC(C)(C)OC(=O)Nc1cnc2nc(-c3cccc(NC(=O)N4CCCC4)c3F)cn2c1 [Compound 579] |  |  |  |  | < 4.60 | < 4.30 | 4.44 | 
29 | CN(C)c1cnc2nc(-c3cc(NC(=O)N4CC(F)C4)ccc3F)cn2c1 [Compound 593] |  |  |  |  | 6.59 | 6.80 | 7.27 | 
30 | Cc1nc(C)c(C(=O)Nc2cccc(-c3cn4cc(NC(=O)OC(C)C)cnc4n3)c2)o1 [Compound 22] | 5.91 | 6.28 | 6.42 |  |  |  |  | 
31 | CCN(CC)C(=O)Nc1cccc(-c2cn3cc(NC(=O)OC(C)C)cnc3n2)c1 [Compound 16] | < 4.60 | 4.85 | 5.79 |  |  |  |  | 
32 | Cc1cccnc1-c1cnc2nc(-c3cc(NC(=O)N4CC(F)(F)C4)ccc3F)cn2c1 [Compound 403] |  |  |  |  | 7.20 | 6.74 | 7.26 | 
33 | CC(C)OC(=O)Nc1cnc2nc(-c3cccc(NC(=O)c4ccc(Cl)o4)c3)cn2c1 [Compound 18] | 6.39 | 6.76 | 7.25 |  |  |  |  | 
